{
  "source": "patent US5972952A",
  "about": "“Neuroprotective pharmaceutical composition containing stereoisomers of arylcyclohexylamines” (Le Centre National De La Recherche Scientifique, priority 1996, dated 1999)",
  "key": {"PCP receptor": {"target": "PCP receptor", "experiment": "[^3H]TCP binding to the PCP receptor (rat brain minus cerebellum homogenate)", "conditions": "inhibition of [^3H]TCP (1 nM) specific binding, 30 min, 25° C., pH 7.7", "experimental": "1-[1-(2-thienyl)-2-methylcyclohexyl]piperidine (TCP) binding to the PCP receptor was performed as previously described. […] The rat brain (minus the cerebellum) was removed and homogenized with an Ultraturax (Ika Werke, Staufen, Germany, maximum setting) in a 50 mM Tris/HCl, pH 7.7 buffer for 20 s at 4° C. The homogenate was then centrifuged at 49,000 g for 20 min. and the pellet was resuspended in the same buffer and the homogenization-centrifugation steps performed a second time. The final pellet was resuspended in 10 volumes of a 50 mM Tris/Hepes, pH 7.7 buffer and used without further purification.\nThe homogenate (0.5-0.8 mg protein/ml) was incubated with N-[1-(2-thienyl) cyclohexyl]3,4-[^3 H]piperidine ([^3 H]TCP, 1 nM) (Amersham, Arlington Heights, Ill, 48 Ci/mmol) in a 5 mM Tris/Hepes, pH 7.7 buffer in the absence (total binding) and in the presence of the test compounds for 30 min. at 25° C. in a volume of 0.5 ml. […] The filters were rinsed twice with 5 ml of a 50 mM NaCl, Tris HCl 10 mM, pH 7.7 buffer and the radioactivity retained counted in 3.5 ml ACS (Amersham) with an Excel 1410 (LKB) liquid scintillation spectrophotometer. The nonspecific binding was determined in parallel experiments in the presence of 100 μM unlabeled TCP."}, "[1]": {"system": "mixed neuronal and glial neocortical cells", "experiment": "Protection of cultured neuronal cells against glutamate neurotoxicity (LDH release)", "assay_type": "cell-based, Sprague-Dawley rat", "conditions": "Rattus norvegicus, glutamate 500 μM for 5 min, 24 h, 100% = glutamate without test compound, read-out: % OF DEAD; for neurotoxicity, % of glutamate alone at 0.1 µM: test compound 0.1 μM; for neurotoxicity, % of glutamate alone at 1 µM: test compound 1 μM; for neurotoxicity, % of glutamate alone at 5 µM: test compound 5 μM; for neurotoxicity, % of glutamate alone at 10 µM: test compound 10 μM", "method": "Cultures of mixed neuronal and glial neocortical cells were prepared from 18-day-old Sprague-Dawley rat foetuses (IFFA-Credo, St. Germain l'Arbresle, France). The cerebral hemispheres were rapidly dissected in Hanks' BSS supplemented with glucose (6 g/l), incubated in trypsine-EDTA (5 min at 35° C.), rinsed with calcium/magnesium-free glucosed Hanks' and mechanically dissociated. After centrifugation (10 min, 70 g), the cells were resuspended in the culture medium consisting of 87% Eagle's minimal essential medium (MEM), 10% horse serum and 0.6% glucose (without antibiotics), and plated on poly-d-lysine (10 μg/cm^2) coated coverslips, in 24-well dishes, to a final density of 4×10^5 cells/cm^2 in 400 μl/well. The cultures were maintained for 2-3 weeks at 35° C. in a humidified atmosphere (95% air/5% CO2), one-third of the medium being replaced every 4 days.\nAfter 17-20 days in vitro, the culture medium was replaced with 400 μl of experimental medium (EM supplemented with glucose) containing the test compound for 5 min. at room temperature. This medium was replaced with the experimental medium containing the same concentration of test compound plus glutamate 500 μM for another 5 min. Finally, the cells were rinsed with the experimental medium and incubated for 24 h. The control cultures had received the same number of replacements of medium as the experimental ones, with standard experimental medium. The 100% neurotoxicity level was based on the effect of glutamate 500 μM for 5 min. The protective effect was quantified by estimation of the activity of the lactate dehydrogenase (LDH) released in the medium. Culture supernatant (100 μl) was added to phosphate buffer (875 μl, 125 mM, pH 7.6) containing 0.3 mM pyruvic acid and β-NADH (25 μl, 10 mg/ml). The decrease in absorbance was measured at 340 nm (Lockhart, et al., Brain Res. 630:36-40 (1993)).\nFour concentrations of test compounds were used, i.e., 10, 5, 1, and 0.1 μM. The dead-cell population was determined by LDH enzymic activity and the results, presented in Table II, were compared with the 100% mortality based on the 500 μM glutamate treated cells without test compound protection."}},
  "data": [
    {"smiles": "C[C@@H]1CCCC[C@]1(c1ccco1)N1CCCCC1", "note": "[(1S,2R)1-[1-(2-Furanyl)-2-methylcyclohexyl]-piperidine]", "values": [
      {"measurement": "IC50", "setting": "PCP receptor", "result": "5.5 ± 1.9", "unit": "nM"},
      {"measurement": "neurotoxicity, % of glutamate alone at 0.1 µM", "setting": "[1]", "result": 92.5, "unit": "%"},
      {"measurement": "neurotoxicity, % of glutamate alone at 1 µM", "setting": "[1]", "result": 83.6, "unit": "%"},
      {"measurement": "neurotoxicity, % of glutamate alone at 5 µM", "setting": "[1]", "result": 43.3, "unit": "%"},
      {"measurement": "neurotoxicity, % of glutamate alone at 10 µM", "setting": "[1]", "result": 32.1, "unit": "%"}
    ]},
    {"smiles": "C[C@@H]1CCCC[C@]1(c1cccs1)N1CCCCC1", "note": "[(1S,2R)1-[1-(2-Thienyl)-2-methylcyclohexyl]-piperidine]", "values": [
      {"measurement": "neurotoxicity, % of glutamate alone at 0.1 µM", "setting": "[1]", "result": 90.3, "unit": "%"},
      {"measurement": "neurotoxicity, % of glutamate alone at 1 µM", "setting": "[1]", "result": 32.9, "unit": "%"},
      {"measurement": "neurotoxicity, % of glutamate alone at 5 µM", "setting": "[1]", "result": 27.2, "unit": "%"},
      {"measurement": "neurotoxicity, % of glutamate alone at 10 µM", "setting": "[1]", "result": 29.7, "unit": "%"}
    ]}
  ]
}
